Data published in patent US4141986A, “Antibiotics 890A2 and 890A5” (Merck & Co., Inc., priority 1977, dated 1979).

Tests used:
[1] = system: Proteus vulgaris (episome) MB-2112; test: In vitro antibacterial spectrum profile, agar diffusion; format: cell-based; conditions: read-out: Inhib. Zone Diam.
Description: (§1) The test to determine the antibiotic spectrum profile of antibiotic 890A2 is carried out by saturating 1/4 inch diameter paper discs in a solution of antibiotic 890A2 in 5% methanol at a concentration of 5 μg./ml.; air drying the saturated paper discs and placing them on the surface of 100 × 15 mm. petri plates containing 5 ml. of seeded nutrient agar plus 0.2% yeast extract.
(§2) The test to determine the antibiotic spectrum profile of antibiotic 890A5 is carried out by application of a 0.015 ml. droplet of a 33 μg./ml. aqueous solution of the antibiotic on the surface of a 100 × 15 mm. petri plate containing 5 ml. of seeded nutrient agar plus 0.2% yeast extract.
^a this episome confers resistance to tetracycline, chloramphenicol,
kanamycin and streptomycin at a concentration of 20 μg./ml. and
neomycin at a concentration of 25 μg./ml. and sulfa drugs.

[2] = Solubility in water; format: physicochemical; conditions: sodium salt, white powder as lyophilized
[3] = Stability during desalting on Sephadex G-10; format: physicochemical; conditions: pooled fractions at pH 4.1; A308/A260 ratio of 0.76
Description: Fractions 112 through 130 containing 890A2, are concentrated under reduced pressure to 5.5 ml. and the concentrate is applied to a column (2.15 × 70 cm.) of Sephadex G-10, and eluted with deionized water at a flow rate of 1 ml. per minute. Fractions of 2.85 ml. each are collected. The bioactivity as determined by assay against Salmonella gallinarum MB1287 appears in fractions 60 through 98. Fractions 78 through 90 have the highest A308 /A260 ratios, and these are pooled for lyophilization. The pH of the pooled fractions is 4.1, and is adjusted to 7.8 by addition of 8 μl of 1M ammonia.

[4] = system: Bacillus sp. MB-633; test: In vitro antibacterial spectrum profile, agar diffusion; format: cell-based; conditions: read-out: Inhib. Zone Diam.
Description: as §1, §2

[5] = system: Salmonella schottmuellari MB-2837; test: In vivo protection of intraperitoneally infected mice; conditions: ip, at the time of infection and again 6 hours later; sample of 59 units/ml.; survival data of the seventh day
Description: In determining the in vivo activity, antibiotic 890A2 is dissolved in 0.15M NaCl, 0.01M sodium phosphate, pH 7.0, and diluted with water to provide five fourfold concentrations of drug for testing. Female white Swiss mice, averaging about 21 g. in weight, were infected intraperitoneally with the test organism suspended in broth. The numbers of organisms injected were determined by standard plate-count techniques. At the time of infection and again 6 hours later, certain of the mice were treated intraperitoneally with the antibiotic. Five mice were used for each concentration of drug tested. An additional two mice, not infected, were treated with the antibiotic to determine whether the amount of agent injected was toxic. Controls of five mice for each of several dilutions of the infecting culture were included in each test in order to calculate the numbers of organisms that were lethal to 50% of the infected, untreated mice (LD50). This calculation was made using survival data of the seventh day after infection, at which time the amount of drug that should protect 50% of the infected mice (ED50) also was calculated.
All animals receiving this challenge and not treated with antibiotic died within 48 hours of the infection. The efficacy of antibiotic 890A2, having a potency of 59 units/ml., against Salmonella schottmuellari MB-2837 is set forth below: […]

[6] = system: Escherichia coli ATCC 9637; test: In vitro antibacterial spectrum profile, agar diffusion; format: cell-based; conditions: read-out: Inhib. Zone Diam.
[7] = system: Erwinia atroseptica ATCC 4466; test: as above; format: cell-based; conditions: Pectobacterium atrosepticum, ATCC4466, read-out: Inhib. Zone Diam.
[8] = system: Difco penicillinase and lactamase(s) produced by a cephalosporin C-resistant strain of Vibrio percolans (MB-2566); test: Inactivation by penicillinase and lactamase(s), from the antibiotic spectra; format: cell-based; conditions: judged from the spectra of Table III
Description: as §1, §2
The spectra of antibiotic 890A2 and 890A5 are quite similar, except for the resistance of 890A5 to inactivation by Difco penicillinase and by lactamase(s) produced by a cephalosporin C-resistant strain of Vibrio percolans (MB-2566).

[9] = 890A2 5 μg./ml., 1/4 inch paper disc
[10] = 890A5 33 μg./ml., 0.015 ml. droplet

SMILES	zone of inhibition at 5 µg/mL [1, 9] [mm]	solubility in water [2]	stability during Sephadex G-10 desalting [3]	zone of inhibition at 5 µg/mL ([4]; SP.MB633, 890A2 5 μg./ml., 1/4 inch paper disc) [mm]	ED50 × 2 doses [5] [Units]	zone of inhibition at 5 µg/mL ([6]; ATCC9637, 890A2 5 μg./ml., 1/4 inch paper disc) [mm]	zone of inhibition at 5 µg/mL [7, 9] [mm]	inactivation by Difco penicillinase and by lactamase(s) of Vibrio percolans MB-2566 [8]	zone of inhibition at 33 µg/mL [1, 10] [mm]	zone of inhibition at 33 µg/mL ([4]; SP.MB633, 890A5 33 μg./ml., 0.015 ml. droplet) [mm]	zone of inhibition at 33 µg/mL ([6]; ATCC9637, 890A5 33 μg./ml., 0.015 ml. droplet) [mm]	zone of inhibition at 33 µg/mL [7, 10] [mm]
CC(=O)NC=CSC1=C(C(=O)O)N2C(=O)C(C(C)O)C2C1 (stereo not drawn) [Antibiotic 890A2]	33	very soluble in water	substantial degradation	40	19	29	26	–	–	–	–	–
CC(=O)NC=CSC1=C(C(=O)O)N2C(=O)C(C(C)O)C2C1 (stereo not drawn) [Antibiotic 890A5]	–	–	–	–	–	–	–	resistance	23	18	24	21
